US11771671B2, “Use of (1S,3S)-3-amino-4-(difluoromethylidene) cyclopentane-1-carboxylic acid and (S)-3-amino-4-(difluoromethylenyl)cyclopent-1-ene-1-carboxylic acid in the treatment of tinnitus, acute sensorineural hearing loss, Meniere's disease, Tourette's syndrome, attention deficit hyperactivity disorder and …” (Ovid Therapeutics Inc., priority 2018, dated 2023)

Assay: plasma pharmacokinetics
Format: in vivo

N[C@H]1C[C@@H](C(=O)O)CC1=C(F)F [(1S,3S)-3-amino-4-(difluoromethylidene)cyclopentane-1-carboxylic acid]
AUCs dose proportionality (dose range of 5 mg-500 mg): greater than proportional increase
C. dose proportionality (dose range of 5 mg-500 mg): increases in a dose proportional manner
half-life (plasma, read-out: plasma elimination half-life): 4 to 6 h
